Data taken from patent US6225307A, “Viral treatment” (priority 2000, dated 2001).

How the values were obtained:
HIV-1 protease = target: T1, HIV-1 protease (Human immunodeficiency virus type 1 group M subtype B, UniProt P04585); assay: Protease inhibition assay (fluorometric method); format: biochemical
T1 construct: fluorometric HIV-1 protease assay; purchased Bachem
Experimental: Protease inhibition is evaluated using a fluorometric method. Enzyme (Bachem) is diluted to 116 μgm/ml in 50 mM NaOAC, 5 mM DTT, 2 mM EDTA, 10% glycerol (pH 5.0) and stored as 10 μl samples at -20° C., HIV protease substrates I (Molecular Probes) is diluted to a working concentration of 0.32 nmoles/μl. Enzyme (20 μl) and drug (20 μl) are added to each well of a microtiter plate as appropriate. Positive and negative control are evaluated in parallel. Fluorescence is quantitated on Labsystems Fluroskan II using 355 nm/460nm at 37° C. at time zero and at 30 minute intervals for 2 hours. In instances where autofluorescence precludes use of the fluorometric HIV-1 protease assay or confirmation of a result is required, an HPLC based protease assay can be employed.

HIV-1 cell line, CEMRF = assay: Long term in vitro study, CEMRF cells, reverse transcriptase analysis; format: cell-based; set-up: Reverse transcriptase data: unit not given here
Experimental: A microtiter-based reveres transcriptase (RT) reaction is utilized (Buckheit et al (1991) AIDS Research and Human Retroviruses 7:295-302). Tritiated thymidine triphosphate (NEN)(TTP) is resuspended in distilled water at 5 Ci/ml. Poly rA and oligo dT are prepared as a stock solution which is kept at -20° C. The RT reaction buffer is prepared fresh on a daily basis and consists of 125 μl 1M EGTA, 125 μl water, 125 μl Triton X-100, 50 μl Tris (pH 7.4), 50 μl MDDT, and 40 μl 1M MgCl2. These three solutions are mixed together in a ratio of 1 part TTP, 2.5 parts poly rA:oligo dT, 2.5 parts reaction buffer and 4 parts distilled water. Ten microliters of this reaction mixture is placed in a round bottom microtiter place and 15 μl of virus containing supernatant is added and mixed. The plate is incubated at 37° C. and incubated for 60 minutes. Following reaction, the reaction volume is spotted onto filter mats, washed 6 times for 5 minutes each in a 5% sodium phosphate buffer, 2 times for 1 minute each in distilled water, 2 times for 1 minute each in 70% ethanol, and then dried. The dried filter mat is placed in a plastic sample bag, Betaplate scintillation fluid is added and the bag is heat sealed. Incorporated radioactivity is quantified utilizing a Wallac Microbeta scintillation counter.
Acute infection of most established human cell lines with HIV- I results in the eventual establishment of a constitutive virus-producing chronically infected cell line. The cells can be passaged for long periods of time in culture without loss of virus production. These cells may be utilized to evaluate the effects of anti-HIV compounds on syncytium formation or to evaluate the effects of anti-HIV compounds on levels of virus production from these cells. […] Each of the cells contains an integrated HIV genome or provirus. Chronically infected CEM, H9 and U937 cell lines have been prepared and cultured by Southern Research Institute, Frederick Md. and are available from them.
CEM-SS cells chronically infected with HIV isolate, for example SKI (CEM-SKI) are cultured in RPM1640 tissue culture medium supplemented with 10% fetal bovine serum and antibiotics. Selection is performed by culturing the cells in the presence of the compound to be tested in T25 flasks. CEM-SKI or other infected cells with no added drug are used as the control cells. Cells are allowed to grow to a density of approximately 1×10^6 cells/ml and are then passaged at a 1:10 dilution. After a period of time, usually one week intervals of drug treatment, cells are evaluated to determine if the inhibitory activity of the compound has been affected by treatment of the cells with either compounds. The drug concentration in the flask is then increased two-fold and the cells maintained as above.
The cell populations contain integrated copies of the HIV genome and constitutively produce HIV at relatively high levels or are latently infected and only produce virus after stimulation with phorbol esters, tumor necrosis factor or IL6(U1 and ACH2). Reductions in virus products were observed when quantifying supernatant reverse transcriptase activity,
Toxicity Values are measured by XTT and activity of the compound in the tests is measured by a Reverse Transcriptase analysis.
A long term in vitro study of 3-hexahydro-3-ethyl-1-methyl-2-oxo-1H-azepin-3-yl)phenyl ester of 4-chlorophenyl carbamic acid against an HIV-1 cell line, CEMRF, was conducted at three different levels. The results with CEMRF cells were reported at weekly intervals. CEMRF is a chronic HIV cell line.

**Q.** Which EC50 (HIV-1 protease) does the source give for CCC1(c2cccc(OC(=O)Nc3ccc(Cl)cc3)c2)CCCCN(C)C1=O (stereo not shown) [(4-chlorophenyl)-carbamic acid, 3-(hexahydro-3-ethyl-1-methyl-2-oxo-1H-azepin-3-yl) 2 phenyl ester] here?
**A.** > 249 µM

**Q.** And the “Protease inhibition, mean” value (HIV-1 protease; 0.1 nM)?
**A.** 27.9 fluorometric units

**Q.** And the “Protease inhibition, sample 1” value (HIV-1 protease; 0.1 nM)?
**A.** 24.7 fluorometric units

**Q.** What about the “Protease inhibition, sample 2” value (HIV-1 protease; 0.1 nM) of the same compound?
**A.** 31.2 fluorometric units

**Q.** And the remaining activity at 0.0001 µM (HIV-1 protease; 0.1 nM, read-out: % ND control)?
**A.** 98.2%

**Q.** What about the “Protease inhibition, mean” value (HIV-1 protease; 1 nM) of the same compound?
**A.** 27.4 fluorometric units

**Q.** And the “Protease inhibition, sample 1” value (HIV-1 protease; 1 nM)?
**A.** 27.4 fluorometric units

**Q.** What about the “Protease inhibition, sample 2” value (HIV-1 protease; 1 nM) of the same compound?
**A.** 27.5 fluorometric units

**Q.** And the remaining activity at 0.001 µM (HIV-1 protease; 1 nM, read-out: % ND control)?
**A.** 96.4%

**Q.** What about the “Protease inhibition, mean” value (HIV-1 protease; 10 nM) of the same compound?
**A.** 26.8 fluorometric units

**Q.** And the “Protease inhibition, sample 1” value (HIV-1 protease; 10 nM)?
**A.** 28.5 fluorometric units

**Q.** What about the “Protease inhibition, sample 2” value (HIV-1 protease; 10 nM) of the same compound?
**A.** 25.1 fluorometric units

**Q.** What about the remaining activity at 0.01 µM (HIV-1 protease; 10 nM, read-out: % ND control) of the same compound?
**A.** 94.2%

**Q.** And the “Protease inhibition, mean” value (HIV-1 protease; 100 nM)?
**A.** 30.0 fluorometric units

**Q.** And the “Protease inhibition, sample 1” value (HIV-1 protease; 100 nM)?
**A.** 29.3 fluorometric units

**Q.** What about the “Protease inhibition, sample 2” value (HIV-1 protease; 100 nM) of the same compound?
**A.** 30.7 fluorometric units

**Q.** What about the remaining activity at 0.1 µM (HIV-1 protease; 100 nM, read-out: % ND control) of the same compound?
**A.** 105%

**Q.** And the “activity as a protease inhibitor” value (HIV-1 protease; screened using a fluorometric method)?
**A.** did not show activity

**Q.** And the Reverse transcriptase data (HIV-1 cell line, CEMRF; 7 μg/ml, Day 4)?
**A.** 1942

**Q.** What about the Reverse transcriptase data (HIV-1 cell line, CEMRF; 7 μg/ml, Day 11) of the same compound?
**A.** 1537

**Q.** What about the Reverse transcriptase data (HIV-1 cell line, CEMRF; 7 μg/ml, Day 18) of the same compound?
**A.** 1683

**Q.** And the Reverse transcriptase data (HIV-1 cell line, CEMRF; 7 μg/ml, Day 25)?
**A.** 1624

**Q.** What about the Reverse transcriptase data (HIV-1 cell line, CEMRF; 7 μg/ml, Day 32) of the same compound?
**A.** 1286

**Q.** What about the Reverse transcriptase data (HIV-1 cell line, CEMRF; 7 μg/ml, Day 39) of the same compound?
**A.** 1368

**Q.** What about the Reverse transcriptase data (HIV-1 cell line, CEMRF; 7 μg/ml, Day 46) of the same compound?
**A.** 1588

**Q.** What about the Reverse transcriptase data (HIV-1 cell line, CEMRF; 7 μg/ml, Day 53) of the same compound?
**A.** 1482

**Q.** What about the Reverse transcriptase data (HIV-1 cell line, CEMRF; 7 μg/ml, Day 60) of the same compound?
**A.** 1381

**Q.** And the Reverse transcriptase data (HIV-1 cell line, CEMRF; 7 μg/ml, Day 67)?
**A.** 1231

**Q.** What about the Reverse transcriptase data (HIV-1 cell line, CEMRF; 7 μg/ml, Day 71) of the same compound?
**A.** 1321

**Q.** What about the Reverse transcriptase data (HIV-1 cell line, CEMRF; 7 μg/ml, Day 74) of the same compound?
**A.** 1528

**Q.** And the Reverse transcriptase data (HIV-1 cell line, CEMRF; 7 μg/ml, Day 88)?
**A.** 1454

**Q.** What about the Reverse transcriptase data (HIV-1 cell line, CEMRF; 7 μg/ml, Day 95) of the same compound?
**A.** 1168

**Q.** And the Reverse transcriptase data (HIV-1 cell line, CEMRF; 7 μg/ml, Day 102)?
**A.** 1463

**Q.** What about the Reverse transcriptase data (HIV-1 cell line, CEMRF; 7 μg/ml, Day 109) of the same compound?
**A.** 1440

**Q.** And the Reverse transcriptase data (HIV-1 cell line, CEMRF; 15 μg/ml, Day 4)?
**A.** 1402

**Q.** What about the Reverse transcriptase data (HIV-1 cell line, CEMRF; 15 μg/ml, Day 11) of the same compound?
**A.** 1402

**Q.** What about the Reverse transcriptase data (HIV-1 cell line, CEMRF; 15 μg/ml, Day 18) of the same compound?
**A.** 1281

**Q.** What about the Reverse transcriptase data (HIV-1 cell line, CEMRF; 15 μg/ml, Day 25) of the same compound?
**A.** 1582

**Q.** And the Reverse transcriptase data (HIV-1 cell line, CEMRF; 15 μg/ml, Day 32)?
**A.** 1140

**Q.** And the Reverse transcriptase data (HIV-1 cell line, CEMRF; 15 μg/ml, Day 39)?
**A.** 1028

**Q.** What about the Reverse transcriptase data (HIV-1 cell line, CEMRF; 15 μg/ml, Day 46) of the same compound?
**A.** 1056

**Q.** And the Reverse transcriptase data (HIV-1 cell line, CEMRF; 15 μg/ml, Day 53)?
**A.** 1160

**Q.** What about the Reverse transcriptase data (HIV-1 cell line, CEMRF; 15 μg/ml, Day 60) of the same compound?
**A.** 1056

**Q.** And the Reverse transcriptase data (HIV-1 cell line, CEMRF; 15 μg/ml, Day 67)?
**A.** 1002

**Q.** And the Reverse transcriptase data (HIV-1 cell line, CEMRF; 15 μg/ml, Day 71)?
**A.** 1108

**Q.** And the Reverse transcriptase data (HIV-1 cell line, CEMRF; 15 μg/ml, Day 74)?
**A.** 1201

**Q.** What about the Reverse transcriptase data (HIV-1 cell line, CEMRF; 15 μg/ml, Day 88) of the same compound?
**A.** 1068

**Q.** What about the Reverse transcriptase data (HIV-1 cell line, CEMRF; 15 μg/ml, Day 95) of the same compound?
**A.** 1004

**Q.** And the Reverse transcriptase data (HIV-1 cell line, CEMRF; 15 μg/ml, Day 102)?
**A.** 1165

**Q.** And the Reverse transcriptase data (HIV-1 cell line, CEMRF; 15 μg/ml, Day 109)?
**A.** 1265

**Q.** What about the Reverse transcriptase data (HIV-1 cell line, CEMRF; 30 μg/ml, Day 4) of the same compound?
**A.** 650

**Q.** And the Reverse transcriptase data (HIV-1 cell line, CEMRF; 30 μg/ml, Day 11)?
**A.** 463

**Q.** And the Reverse transcriptase data (HIV-1 cell line, CEMRF; 30 μg/ml, Day 18)?
**A.** 221

**Q.** What about the Reverse transcriptase data (HIV-1 cell line, CEMRF; 30 μg/ml, Day 25) of the same compound?
**A.** 643

**Q.** And the Reverse transcriptase data (HIV-1 cell line, CEMRF; 30 μg/ml, Day 32)?
**A.** 462

**Q.** What about the Reverse transcriptase data (HIV-1 cell line, CEMRF; 30 μg/ml, Day 39) of the same compound?
**A.** 221

**Q.** And the Reverse transcriptase data (HIV-1 cell line, CEMRF; 30 μg/ml, Day 46)?
**A.** 149

**Q.** What about the Reverse transcriptase data (HIV-1 cell line, CEMRF; 30 μg/ml, Day 53) of the same compound?
**A.** 281

**Q.** And the Reverse transcriptase data (HIV-1 cell line, CEMRF; 30 μg/ml, Day 60)?
**A.** 248

**Q.** And the Reverse transcriptase data (HIV-1 cell line, CEMRF; 30 μg/ml, Day 67)?
**A.** 147

**Q.** What about the Reverse transcriptase data (HIV-1 cell line, CEMRF; 30 μg/ml, Day 71) of the same compound?
**A.** 201

**Q.** What about the Reverse transcriptase data (HIV-1 cell line, CEMRF; 30 μg/ml, Day 74) of the same compound?
**A.** 161

**Q.** What about the Reverse transcriptase data (HIV-1 cell line, CEMRF; 30 μg/ml, Day 88) of the same compound?
**A.** 249

**Q.** And the Reverse transcriptase data (HIV-1 cell line, CEMRF; 30 μg/ml, Day 95)?
**A.** 176

**Q.** And the Reverse transcriptase data (HIV-1 cell line, CEMRF; 30 μg/ml, Day 102)?
**A.** 197

**Q.** What about the Reverse transcriptase data (HIV-1 cell line, CEMRF; 30 μg/ml, Day 109) of the same compound?
**A.** 370

**Q.** What about the “Reverse transcriptase data, continued test” value (HIV-1 cell line, CEMRF; run through 222 days) of the same compound?
**A.** data remained consistent
